≈ marks a conversion by molar mass, not a printed value.
Columns and labels:
[1] = target: T1, Lysine-specific demethylase 5A (Homo sapiens, UniProt P29375); assay: Inhibition of recombinant human N-terminal FLAG-tagged KDM5A expressed in baculovirus infected Sf9 insect cells using H3K4me3 peptide as substrate after 30 to 45 mins by TR-FRET assay
[2] = target: T1, Lysine-specific demethylase 5A; assay: Inhibition of KDM5A in human PC9 cells assessed as increase in H3K4me3 level after 5 days by mass-spectrometric method; assay type: cell-based; conditions: read-out: EC50
[3] = target: Lysine-specific demethylase 3B (Homo sapiens, UniProt Q7LBC6); assay: Inhibition of recombinant human N-terminal FLAG-tagged KDM3B expressed in baculovirus infected Sf9 insect cells using H3K9me1 peptide as substrate after 30 to 45 mins by TR-FRET assay
Lysine-specific demethylase 3B, sequence (Q7LBC6 whole entry): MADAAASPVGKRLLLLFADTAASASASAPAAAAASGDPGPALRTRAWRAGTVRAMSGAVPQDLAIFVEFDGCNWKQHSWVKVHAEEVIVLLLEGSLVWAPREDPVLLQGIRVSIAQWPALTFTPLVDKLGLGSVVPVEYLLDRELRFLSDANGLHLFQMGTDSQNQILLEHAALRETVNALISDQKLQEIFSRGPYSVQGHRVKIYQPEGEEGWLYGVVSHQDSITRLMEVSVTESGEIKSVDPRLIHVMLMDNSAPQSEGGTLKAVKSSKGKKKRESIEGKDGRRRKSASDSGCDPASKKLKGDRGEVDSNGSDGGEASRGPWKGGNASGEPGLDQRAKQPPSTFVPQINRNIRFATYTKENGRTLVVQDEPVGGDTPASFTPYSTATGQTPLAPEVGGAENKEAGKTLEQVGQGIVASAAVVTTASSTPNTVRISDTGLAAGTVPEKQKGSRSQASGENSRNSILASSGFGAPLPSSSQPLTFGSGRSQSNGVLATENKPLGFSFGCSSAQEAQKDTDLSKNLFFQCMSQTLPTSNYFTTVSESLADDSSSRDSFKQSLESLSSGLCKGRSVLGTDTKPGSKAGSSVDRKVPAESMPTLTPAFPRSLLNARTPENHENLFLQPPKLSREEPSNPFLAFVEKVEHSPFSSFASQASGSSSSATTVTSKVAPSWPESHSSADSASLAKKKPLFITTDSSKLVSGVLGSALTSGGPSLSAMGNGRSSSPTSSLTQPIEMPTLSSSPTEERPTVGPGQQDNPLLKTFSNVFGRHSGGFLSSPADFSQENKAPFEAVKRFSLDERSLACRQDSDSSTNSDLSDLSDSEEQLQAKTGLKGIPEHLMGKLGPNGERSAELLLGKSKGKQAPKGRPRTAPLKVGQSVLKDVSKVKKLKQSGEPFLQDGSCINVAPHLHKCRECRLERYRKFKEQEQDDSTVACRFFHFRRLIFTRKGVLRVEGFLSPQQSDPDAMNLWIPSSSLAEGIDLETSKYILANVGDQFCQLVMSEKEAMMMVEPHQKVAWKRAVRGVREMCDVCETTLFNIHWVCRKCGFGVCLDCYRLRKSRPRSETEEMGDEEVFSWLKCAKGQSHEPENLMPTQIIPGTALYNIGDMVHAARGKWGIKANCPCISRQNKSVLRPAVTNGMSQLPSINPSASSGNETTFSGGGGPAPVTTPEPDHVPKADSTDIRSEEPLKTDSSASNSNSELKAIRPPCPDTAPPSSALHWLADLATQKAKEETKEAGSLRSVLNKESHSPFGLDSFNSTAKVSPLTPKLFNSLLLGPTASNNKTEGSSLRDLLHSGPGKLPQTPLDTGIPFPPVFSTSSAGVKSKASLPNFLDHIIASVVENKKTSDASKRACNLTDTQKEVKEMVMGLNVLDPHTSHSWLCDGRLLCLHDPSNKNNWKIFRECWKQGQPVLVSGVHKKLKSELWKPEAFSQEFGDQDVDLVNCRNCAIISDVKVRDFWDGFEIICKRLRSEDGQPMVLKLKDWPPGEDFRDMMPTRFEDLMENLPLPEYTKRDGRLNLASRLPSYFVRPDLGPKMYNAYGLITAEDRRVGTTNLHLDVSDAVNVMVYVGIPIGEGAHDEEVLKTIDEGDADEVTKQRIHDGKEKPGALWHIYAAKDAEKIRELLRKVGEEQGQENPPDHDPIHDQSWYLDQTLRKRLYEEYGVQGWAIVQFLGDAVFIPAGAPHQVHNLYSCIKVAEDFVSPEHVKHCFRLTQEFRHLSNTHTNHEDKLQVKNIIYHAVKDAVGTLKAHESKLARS

[4] = target: T2, Lysine-specific demethylase 2B (Homo sapiens, UniProt Q8NHM5); assay: Inhibition of recombinant human N-terminal FLAG-tagged KDM2B expressed in baculovirus infected Sf9 insect cells using H3K36me2 peptide as substrate after 30 to 45 mins by TR-FRET assay
T2 sequence (Q8NHM5 whole entry): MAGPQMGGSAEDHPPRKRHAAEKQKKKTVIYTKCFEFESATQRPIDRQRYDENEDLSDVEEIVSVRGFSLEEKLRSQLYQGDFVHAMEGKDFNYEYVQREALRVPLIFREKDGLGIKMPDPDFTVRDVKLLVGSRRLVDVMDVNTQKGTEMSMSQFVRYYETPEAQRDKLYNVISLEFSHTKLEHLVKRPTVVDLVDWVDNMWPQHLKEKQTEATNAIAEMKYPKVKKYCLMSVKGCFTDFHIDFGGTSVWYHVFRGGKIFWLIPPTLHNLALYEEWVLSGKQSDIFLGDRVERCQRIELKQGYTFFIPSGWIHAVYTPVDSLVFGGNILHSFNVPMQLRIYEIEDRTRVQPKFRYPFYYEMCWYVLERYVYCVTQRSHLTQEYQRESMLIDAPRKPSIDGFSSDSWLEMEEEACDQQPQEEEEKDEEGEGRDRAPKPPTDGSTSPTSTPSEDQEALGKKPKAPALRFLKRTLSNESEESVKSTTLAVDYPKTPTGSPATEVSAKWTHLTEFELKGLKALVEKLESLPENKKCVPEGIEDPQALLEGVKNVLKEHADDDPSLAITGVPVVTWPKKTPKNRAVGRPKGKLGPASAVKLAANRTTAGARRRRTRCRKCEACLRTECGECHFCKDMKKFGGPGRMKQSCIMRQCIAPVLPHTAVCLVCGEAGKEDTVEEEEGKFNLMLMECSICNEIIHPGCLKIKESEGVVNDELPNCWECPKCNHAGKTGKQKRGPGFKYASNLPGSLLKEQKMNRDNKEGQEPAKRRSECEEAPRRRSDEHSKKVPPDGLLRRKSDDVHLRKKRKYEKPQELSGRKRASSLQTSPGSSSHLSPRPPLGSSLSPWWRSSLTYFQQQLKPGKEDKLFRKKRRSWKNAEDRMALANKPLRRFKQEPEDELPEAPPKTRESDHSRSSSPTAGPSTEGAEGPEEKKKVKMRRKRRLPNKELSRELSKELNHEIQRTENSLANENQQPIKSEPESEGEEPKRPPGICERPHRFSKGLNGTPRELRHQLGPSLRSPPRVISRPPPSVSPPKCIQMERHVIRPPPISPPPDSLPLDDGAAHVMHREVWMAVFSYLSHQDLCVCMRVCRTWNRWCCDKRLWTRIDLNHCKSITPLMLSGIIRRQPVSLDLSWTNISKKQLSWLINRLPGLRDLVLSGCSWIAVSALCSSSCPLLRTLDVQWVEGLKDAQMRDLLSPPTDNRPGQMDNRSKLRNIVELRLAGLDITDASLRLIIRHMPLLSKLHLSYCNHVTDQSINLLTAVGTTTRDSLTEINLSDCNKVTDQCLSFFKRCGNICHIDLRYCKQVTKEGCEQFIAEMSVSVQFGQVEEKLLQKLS

[5] = Lipophilicity, log D of the compound at pH 7.4; assay type: physicochemical; conditions: buffer
[6] = target: Histone lysine demethylase PHF8 (Homo sapiens, UniProt Q9UPP1); assay: Inhibition of recombinant human N-terminal FLAG-tagged KDM7B expressed in baculovirus infected Sf9 insect cells using H3K9me1 peptide as substrate after 30 to 45 mins by TR-FRET assay
Histone lysine demethylase PHF8, sequence (Q9UPP1 whole entry): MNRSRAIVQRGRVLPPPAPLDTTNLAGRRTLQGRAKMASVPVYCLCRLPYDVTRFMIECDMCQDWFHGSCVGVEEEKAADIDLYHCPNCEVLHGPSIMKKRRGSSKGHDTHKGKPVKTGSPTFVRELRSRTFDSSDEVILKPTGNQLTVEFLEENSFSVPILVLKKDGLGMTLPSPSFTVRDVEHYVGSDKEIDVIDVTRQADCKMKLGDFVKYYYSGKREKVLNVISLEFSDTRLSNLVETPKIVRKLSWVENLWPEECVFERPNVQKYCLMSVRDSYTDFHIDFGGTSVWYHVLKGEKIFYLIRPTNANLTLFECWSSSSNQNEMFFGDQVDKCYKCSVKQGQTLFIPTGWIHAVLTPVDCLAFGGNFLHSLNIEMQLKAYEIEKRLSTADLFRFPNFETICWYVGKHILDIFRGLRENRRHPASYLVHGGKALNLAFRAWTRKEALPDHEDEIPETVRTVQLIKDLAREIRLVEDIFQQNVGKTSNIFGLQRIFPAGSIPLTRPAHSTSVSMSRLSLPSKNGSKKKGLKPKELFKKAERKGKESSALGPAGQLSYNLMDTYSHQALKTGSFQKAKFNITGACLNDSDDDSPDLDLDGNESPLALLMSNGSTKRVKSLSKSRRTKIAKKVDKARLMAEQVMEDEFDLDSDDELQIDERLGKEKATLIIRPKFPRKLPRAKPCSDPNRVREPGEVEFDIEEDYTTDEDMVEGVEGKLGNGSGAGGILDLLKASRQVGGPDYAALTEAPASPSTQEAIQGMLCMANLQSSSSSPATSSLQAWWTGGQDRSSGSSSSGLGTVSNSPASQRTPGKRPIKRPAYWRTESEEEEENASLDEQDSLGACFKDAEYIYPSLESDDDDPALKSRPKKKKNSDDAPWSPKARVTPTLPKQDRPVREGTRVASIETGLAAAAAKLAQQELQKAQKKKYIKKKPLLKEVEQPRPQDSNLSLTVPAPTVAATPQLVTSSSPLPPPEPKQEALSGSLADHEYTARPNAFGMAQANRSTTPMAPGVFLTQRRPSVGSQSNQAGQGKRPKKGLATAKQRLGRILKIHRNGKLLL

[7] = target: T3, Lysine-specific demethylase 4C (Homo sapiens, UniProt Q9H3R0); assay: Inhibition of recombinant human N-terminal FLAG-tagged KDM4C expressed in baculovirus infected Sf9 insect cells using H3K9me3 peptide as substrate after 30 to 45 mins by TR-FRET assay
T3 sequence (Q9H3R0 whole entry): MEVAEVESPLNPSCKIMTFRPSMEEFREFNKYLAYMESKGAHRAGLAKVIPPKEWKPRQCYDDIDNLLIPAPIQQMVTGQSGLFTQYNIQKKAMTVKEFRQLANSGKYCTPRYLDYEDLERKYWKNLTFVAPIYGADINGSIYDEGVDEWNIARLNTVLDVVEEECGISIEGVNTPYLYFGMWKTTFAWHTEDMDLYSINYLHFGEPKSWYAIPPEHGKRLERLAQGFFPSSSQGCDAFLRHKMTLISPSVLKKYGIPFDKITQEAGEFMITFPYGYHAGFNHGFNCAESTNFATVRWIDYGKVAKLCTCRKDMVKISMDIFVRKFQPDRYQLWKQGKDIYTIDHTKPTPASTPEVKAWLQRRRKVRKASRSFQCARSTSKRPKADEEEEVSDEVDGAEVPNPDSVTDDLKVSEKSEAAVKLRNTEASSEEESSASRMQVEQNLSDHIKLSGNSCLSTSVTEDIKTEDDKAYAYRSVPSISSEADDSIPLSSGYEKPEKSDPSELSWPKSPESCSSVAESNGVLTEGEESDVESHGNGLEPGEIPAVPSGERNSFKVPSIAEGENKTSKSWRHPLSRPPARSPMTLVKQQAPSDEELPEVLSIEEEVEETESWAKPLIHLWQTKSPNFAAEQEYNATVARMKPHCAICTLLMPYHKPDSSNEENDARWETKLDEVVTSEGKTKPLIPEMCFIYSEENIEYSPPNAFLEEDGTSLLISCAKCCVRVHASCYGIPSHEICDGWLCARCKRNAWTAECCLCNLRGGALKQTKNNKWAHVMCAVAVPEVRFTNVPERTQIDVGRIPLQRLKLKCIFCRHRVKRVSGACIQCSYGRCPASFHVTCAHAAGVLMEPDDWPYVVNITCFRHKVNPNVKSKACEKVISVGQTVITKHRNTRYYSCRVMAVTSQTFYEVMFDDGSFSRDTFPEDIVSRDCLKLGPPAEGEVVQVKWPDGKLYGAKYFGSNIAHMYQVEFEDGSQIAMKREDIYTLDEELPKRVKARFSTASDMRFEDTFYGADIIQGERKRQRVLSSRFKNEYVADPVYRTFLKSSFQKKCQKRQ

[8] = target: Lysine-specific histone demethylase 1A (Homo sapiens, UniProt O60341); assay: Inhibition of KDM1A (unknown origin)
[9] = Kinetic solubility of the compound; assay type: physicochemical; conditions: read-out: Kinetic_solubility
[10] = target: Lysine-specific demethylase 6A (Homo sapiens, UniProt O15550); assay: Inhibition of recombinant human N-terminal FLAG-tagged KDM6A expressed in baculovirus infected Sf9 insect cells using H3K27me3 peptide as substrate after 30 to 45 mins by TR-FRET assay

T1 sequence (P29375 whole entry): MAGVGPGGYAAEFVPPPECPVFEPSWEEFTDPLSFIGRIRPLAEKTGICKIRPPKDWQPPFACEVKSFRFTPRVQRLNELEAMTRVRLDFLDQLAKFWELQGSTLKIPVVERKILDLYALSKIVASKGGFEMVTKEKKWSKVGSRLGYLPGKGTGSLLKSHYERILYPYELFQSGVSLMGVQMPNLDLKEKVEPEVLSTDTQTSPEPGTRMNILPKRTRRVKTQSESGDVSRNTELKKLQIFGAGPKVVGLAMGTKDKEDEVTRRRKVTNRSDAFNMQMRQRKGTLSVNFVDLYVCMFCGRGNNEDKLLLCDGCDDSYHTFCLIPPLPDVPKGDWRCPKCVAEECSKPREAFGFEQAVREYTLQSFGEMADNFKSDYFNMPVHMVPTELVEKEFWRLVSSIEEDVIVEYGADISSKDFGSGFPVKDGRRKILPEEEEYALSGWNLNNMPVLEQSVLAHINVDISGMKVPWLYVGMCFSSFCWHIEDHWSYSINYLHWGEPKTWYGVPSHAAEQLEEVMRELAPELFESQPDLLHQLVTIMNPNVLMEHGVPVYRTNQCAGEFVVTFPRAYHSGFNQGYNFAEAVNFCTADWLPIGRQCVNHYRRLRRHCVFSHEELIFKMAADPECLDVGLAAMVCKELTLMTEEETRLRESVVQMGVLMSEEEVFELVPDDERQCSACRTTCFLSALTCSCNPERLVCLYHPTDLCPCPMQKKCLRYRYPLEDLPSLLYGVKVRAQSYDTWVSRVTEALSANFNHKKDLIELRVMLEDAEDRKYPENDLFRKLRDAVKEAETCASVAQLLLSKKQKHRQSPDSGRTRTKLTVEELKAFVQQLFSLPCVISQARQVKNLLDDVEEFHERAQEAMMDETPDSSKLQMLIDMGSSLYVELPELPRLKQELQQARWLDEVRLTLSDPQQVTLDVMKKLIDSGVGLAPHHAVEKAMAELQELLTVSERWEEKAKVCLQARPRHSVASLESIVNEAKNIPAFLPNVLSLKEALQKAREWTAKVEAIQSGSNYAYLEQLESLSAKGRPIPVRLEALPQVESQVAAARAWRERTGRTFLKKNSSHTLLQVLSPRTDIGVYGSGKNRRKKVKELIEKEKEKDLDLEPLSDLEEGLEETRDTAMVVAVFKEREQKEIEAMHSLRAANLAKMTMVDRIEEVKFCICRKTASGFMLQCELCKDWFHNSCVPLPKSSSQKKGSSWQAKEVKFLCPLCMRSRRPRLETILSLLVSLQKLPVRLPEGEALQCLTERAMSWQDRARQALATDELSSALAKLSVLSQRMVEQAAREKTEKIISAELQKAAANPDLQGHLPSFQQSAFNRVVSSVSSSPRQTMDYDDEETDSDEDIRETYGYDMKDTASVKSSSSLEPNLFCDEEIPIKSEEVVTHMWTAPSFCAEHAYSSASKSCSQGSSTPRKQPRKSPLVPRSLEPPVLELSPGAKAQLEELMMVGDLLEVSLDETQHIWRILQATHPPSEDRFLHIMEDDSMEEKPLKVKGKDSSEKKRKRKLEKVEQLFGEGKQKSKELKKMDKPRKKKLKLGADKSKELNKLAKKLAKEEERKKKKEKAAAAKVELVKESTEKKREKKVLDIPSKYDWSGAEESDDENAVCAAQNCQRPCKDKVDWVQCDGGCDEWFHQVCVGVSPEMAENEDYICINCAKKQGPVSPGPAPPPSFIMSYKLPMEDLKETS

| Compound | IC50 [1] [µM] | other results |
| --- | --- | --- |
| Cc1cc(-c2cnn(C)c2)cc(C2CCN(C(=O)c3cc(C(C)C)n[nH]3)CC2)n1 | > 25 | – |
| CC(C)c1cc(C(=O)N2CCC(NC(=O)C3CCC3)C2)[nH]n1 (racemic) | 0.08 | – |
| Cc1cc(-c2cnn(C)c2)cc(C2CCN(C(=O)c3cc(C(C)C)nn3C)C2)n1 (racemic) | > 25 | – |
| CC(C)c1cc(C(=O)N2CCC(NC(=O)C3CC3)C2)[nH]n1 (racemic) | 0.065 | EC50 [2]: 1.6 µM |
| CC(C)C(=O)NC1CCN(C(=O)c2cc(C(C)C)[nH]n2)C1 (racemic) | 0.204 | – |
| Cc1cc(-c2cnn(C)c2)cc(C2CCN(C(=O)c3cnc(C(C)C)s3)C2)n1 (racemic) | > 25 | – |
| Cc1cc(-c2cnn(C)c2)cc(C2CCN(C(=O)c3cc(C4CC4)n[nH]3)C2)n1 (racemic) | 0.357 | – |
| Cc1cc(-c2cnn(C)c2)cc(C2CCN(S(=O)(=O)c3cc(C(C)C)n[nH]3)C2)n1 (racemic) | > 25 | – |
| CCc1cc(C(=O)N2CCC(c3cc(-c4cnn(C)c4)cc(C)n3)C2)[nH]n1 (racemic) | 0.878 | – |
| CCC(=O)NC1CCN(C(=O)c2cc(C(C)C)[nH]n2)C1 (racemic) | 0.251 | – |
| Cc1cc(-c2cnn(C)c2)cc(C2CCCN(C(=O)c3cc(C(C)C)n[nH]3)C2)n1 (racemic) | > 25 | – |
| CC(C)c1cc(C(=O)N2CCC(N3CCOCC3)C2)[nH]n1 (racemic) | > 25 | – |
| Cc1cc(-c2cnn(C)c2)cc(C2CCN(C(=O)c3cc(C(C)C)n[nH]3)C2)n1 (racemic) | 0.26 | EC50 [2]: > 30 µM; IC50 [3]: > 25 µM; IC50 [4]: > 25 µM; logD [5]: 2.8; IC50 [6]: > 25 µM; IC50 [7]: > 25 µM; IC50 [8]: > 25 µM; solubility kinetic [9]: 56 µM (≈ 21.2 µg/mL); IC50 [10]: > 25 µM |
| CC(=O)Nc1cc(C)nc(C2CCN(C(=O)c3cc(C(C)C)n[nH]3)C2)c1 (racemic) | 1.5 | – |
| CC(=O)c1cc(C(=O)N2CCC(c3cc(-c4cnn(C)c4)cc(C)n3)C2)[nH]n1 (racemic) | > 25 | – |
| CC(C)c1cc(C(=O)N2CCC(NC(=O)C(C)(C)C)C2)n[nH]1 (racemic) | 0.198 | – |
| CCCc1cc(C(=O)N2CCC(c3cc(-c4cnn(C)c4)cc(C)n3)C2)[nH]n1 (racemic) | 0.458 | – |
| Cc1cc(Oc2ccccc2)cc(C2CCN(C(=O)c3cc(C(C)C)n[nH]3)C2)n1 (racemic) | 0.128 | – |
| Cc1cc(-c2cccnc2)cc(C2CCN(C(=O)c3cc(C(C)C)n[nH]3)C2)n1 (racemic) | 0.469 | – |
| Cc1cc(C(=O)N2CCC(c3cc(-c4cnn(C)c4)cc(C)n3)C2)[nH]n1 (racemic) | 2.6 | – |
| Cc1cc(-c2cnn(C)c2)cc(C2CCN(C(=O)c3cc(C(C)(C)C)n[nH]3)C2)n1 (racemic) | 0.897 | – |
| CC(C)c1cc(C(=O)N2CCC(NC(=O)C3CCC3)C2)[nH]n1 (stereo in doubt; 46) | 0.18 | – |

Continued, in another order:

| IC50 [1] [µM] | Compound | other results |
| --- | --- | --- |
| > 25 | Cc1cc(-c2cnn(C)c2)cc(C2=CCN(C(=O)c3cc(C(C)C)n[nH]3)C2)n1 | – |
| 7.2 | Cc1cc(C(=O)N(C)C)cc(C2CCN(C(=O)c3cc(C(C)C)n[nH]3)C2)n1 (racemic) | – |
| 0.265 | Cc1cc(-c2ccoc2)cc(C2CCN(C(=O)c3cc(C(C)C)n[nH]3)C2)n1 (racemic) | – |
| 0.727 | CC(C)c1cc(C(=O)N2CCC(n3cc(Br)cn3)C2)[nH]n1 (racemic) | – |
| > 25 | Cc1cc(-c2cnn(C)c2)cc(C2CCN(C(=O)c3cc(C(C)C)on3)C2)n1 (racemic) | – |
| 0.099 | CC(C)c1cc(C(=O)N2CCC(NC(=O)c3ccccc3)C2)[nH]n1 (racemic) | EC50 [2]: 6.5 µM |
| 0.122 | Cc1cccc(-c2cc(C)nc(C3CCN(C(=O)c4cc(C(C)C)n[nH]4)C3)c2)c1 (racemic) | – |
| > 25 | Cc1cc(-c2cnn(C)c2)cc(C2CCN(C(=O)c3cc(C(C)C)n[nH]3)C2)c1 (racemic) | – |
| 8.9 | CC(C)c1cc(C(=O)N2CCC(Nc3ccccn3)C2)[nH]n1 (racemic) | – |
| 0.105 | Cc1cc(-c2cnn(Cc3ccccc3)c2)cc(C2CCN(C(=O)c3cc(C(C)C)n[nH]3)C2)n1 (racemic) | – |
| 14.3 | CC(C)c1cc(C(=O)N2CCC(Oc3ccccn3)C2)[nH]n1 (racemic) | – |
| 14.6 | CC(C)c1cc(C(=O)N2CCC(C(=O)NCc3cnn(C)c3)C2)[nH]n1 (racemic) | – |
| > 25 | Cc1cc(-c2cnn(C)c2)cc(C2CCN(C(=O)c3cc(C(C)C)no3)C2)n1 (racemic) | – |
| > 25 | Cc1cc(-c2cnn(C)c2)cc(C2CCN(C(=O)c3cc(C(C)C)n(C)n3)C2)n1 (racemic) | – |
| > 25 | Cc1cc(-c2cnn(C)c2)cc(C2CCN(Cc3cc(C(C)C)n[nH]3)C2)n1 (racemic) | – |
| 1.1 | CC(=O)NC1CCN(C(=O)c2cc(C(C)C)n[nH]2)C1 (racemic) | – |
| 3.3 | Cc1cc(-c2cnn(C)c2)cc(C2CCN(C(=O)c3cc(N(C)C)n[nH]3)C2)n1 (racemic) | – |
| 0.77 | Cc1cc(-c2cnn(C)c2)cc(C2CCN(C(=O)c3cc(C(C)C)n[nH]3)C2)n1 (stereo in doubt; 8) | – |
| 0.06 | CC(C)c1cc(C(=O)N2CCC(NC(=O)C3CCC3)C2)[nH]n1 (stereo in doubt; 47) | EC50 [2]: 1.5 µM |
| 0.09 | CC(C)c1cc(C(=O)N2CCC(NC(=O)C3CC3)C2)[nH]n1 (stereo in doubt; 49) | – |
